Test results from patent US20170066801A1, “ALPHA3BETA HYDROGEN BOND SURROGATE MACROCYCLES AS MODULATORS OF RAS” (NEW YORK UNIVERSITY, priority 2014, published 2017).
Non-standard residues stand in square brackets, D forms with d. Residues, ends and D or L forms follow the SMILES beside them. β3hI = CC[C@H](C)[C@H](N)CC(=O)O; β3hE = N[C@@H](CCC(=O)O)CC(=O)O; β3hA = C[C@H](N)CC(=O)O

Columns and labels:
[1] = test system: panel of six human cancer cell lines; assay: Growth and viability of a panel of six human cancer cell lines; format: cell-based; settings: single administration of 5 μM, six days
Description: Various indicated cell lines were plated at low density (˜500-1000 cells per well) in a 96-well format. 12 hours post-plating, media was supplemented with either PBS vehicle, or indicated dosage, and cells were allowed to grow for ˜5.5 days. Cells were subsequently fixed for 1 hour with a 3.7% formaldehyde solution in PBS, and stained with Syto-60 nucleic acid stain (MANUFACTURER) in solution (1:2000 Syto-60, 0.5% Triton X-100, 100 ug/mL RNAse-A, in PBS). Syto-60 stained cells were subjected to quantitative imaging in 96-well plates (Odyssey® Imager, LI-COR Biosciences; excitation: 652; emission: 678) with a 3.0 mm z-axis offset to the scan-head to get the cellular nuclei in the optimal focal plane for quantification. Absolute fluorescence intensity was normalized to the vehicle control for each respective cell line at each dose. Normalized values were visualized on a semilog plot, and data was subjected to non-linear sigmoidal dose-response to determine half-maximal effective concentration (EC50) using GraphPad Prism version 6.00 for OSX, (GraphPad Software, La Jolla Calif. USA, www.graphpad.com).
To investigate the functional consequence of inhibiting Ras activation in the context of oncogenic mutations, we examined the effect of α3β-HBSSOS on the growth and viability of cancer cells of different origins. We selected a panel of six human cancer cell lines derived from the pancreas, colon, and bladder, which harbor a variety of oncogenic proteins including mutant KRas (Table 3).
α3β-HBSSOS reduces cell viability in a dose dependent manner, with the effect spanning over four orders of magnitude. We divided the cell lines into two groups with respect to EC50 values (Table 3). […] We hypothesized that differential cellular uptake may account for the different potency of the peptides between the oncogenic and wild type RTK-Ras cell lines.

wild type HRas = biological target: T1, wild type HRas (Homo sapiens, UniProt P01112); assay: RBD-pulldown of GTP-loaded Ras in MIA PaCa-2 cells; format: cell-based; settings: 48 hours
T1 construct: levels of GTP-loaded endogenous HRas, KRas, and NRas proteins; endogenous in cells; host or cells: MIA PaCa-2
T1 sequence (P01112 whole entry): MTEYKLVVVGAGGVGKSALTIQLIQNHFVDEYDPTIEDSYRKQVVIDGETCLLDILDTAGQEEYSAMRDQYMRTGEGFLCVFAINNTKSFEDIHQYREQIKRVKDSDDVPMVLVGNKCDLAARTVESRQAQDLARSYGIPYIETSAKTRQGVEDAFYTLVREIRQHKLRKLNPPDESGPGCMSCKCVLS
Description: (§1) To determine the effect of α3β-HBSSOS on Sos-mediated Ras activation in cells we treated MIA PaCa-2 cells, which harbor oncogenic KRas, with α3β-HBSSOS, control peptides, or vehicle control for 48 hours. Utilizing the RBD-pulldown assay we determined the levels of GTP-loaded endogenous HRas, KRas, and NRas proteins. As expected, MIA PaCa-2 cells display GTP-loading of all isoforms at steady state when treated with the vehicle control (FIGS. 11A-B).

wild type NRas = biological target: T2, wild type NRas (Homo sapiens, UniProt P01111); assay: RBD-pulldown of GTP-loaded Ras in MIA PaCa-2 cells; format: cell-based; settings: 48 hours
T2 construct: levels of GTP-loaded endogenous HRas, KRas, and NRas proteins; endogenous in cells; host or cells: MIA PaCa-2
T2 sequence (P01111 whole entry): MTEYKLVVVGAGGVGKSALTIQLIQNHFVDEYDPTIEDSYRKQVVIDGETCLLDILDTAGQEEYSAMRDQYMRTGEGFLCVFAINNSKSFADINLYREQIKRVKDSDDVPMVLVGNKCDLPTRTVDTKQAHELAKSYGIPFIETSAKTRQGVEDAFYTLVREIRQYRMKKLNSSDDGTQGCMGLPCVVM
Description: as §1

HRas^(1-166) = biological target: T3, HRas^(1-166) (Homo sapiens, UniProt P01112); assay: In vitro pulldown binding assay with 6×His-tagged HRas 1-166 and fluorescein-tagged SOS peptides
T3 construct: 6×His-tagged HRas WT 1-166; made in house
T3 sequence (P01112 1-166): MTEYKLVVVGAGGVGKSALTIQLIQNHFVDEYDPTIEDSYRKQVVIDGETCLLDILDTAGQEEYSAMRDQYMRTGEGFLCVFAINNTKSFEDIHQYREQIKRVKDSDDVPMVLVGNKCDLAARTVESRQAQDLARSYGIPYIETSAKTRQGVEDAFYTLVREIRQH
Description: Recombinantly purified 6×His-tagged HRas WT 1-166 was incubated with Ni-NTA sepharose beads, generating recombinant Ras on solid support. FITC labeled HBS peptides were incubated in the presence of recombinant HRas-6×His/Ni-NTA Sepharose complex at 4° C. for 1 hour. Beads complexes were pelleted and washed 5× with protein buffer (20 mM Tris-HCl pH 7.6, 50 mM NaCl, 4 mM EDTA, 10 mM MgCl2), resuspended in reducing buffer (126 mM Tris-HCL pH 6.8, 20% glycerol, 4% SDS, 0.02% bromophenol blue, 2.5% β-mercaptoethanol), boiled for 10 minutes at 95° C., and subjected to SDS-PAGE with an acrylamide percentage of 20% to allow for sufficient resolution of the HBS helices. SDS-PAGE gels were imaged using an ImageQuant™ LAS 4000 biomolecular imager (GE Healthcare, Piscataway, N.J., USA). Quantification of fluorescence by FITC-HBS helices in gel was determined by manufacturer provided ImageQuant™ TL software. Raw values were normalized to total input and plotted on a semilog graph with GraphPad Prism version 6.00 for OSX (GraphPad Software, La Jolla Calif. USA, www.graphpad.com).
The binding affinity of the designed compounds for Ras was determined using in vitro pulldown assays with recombinantly purified 6×His-tagged HRas^(1-166) and fluorescein-tagged SOS peptides (FIGS. 8 and 9, and Table 2). […] Although, the exact binding mode of the peptides and the conformational state of Ras is not known, the enhanced affinity of the α3β-HBSSOS compound likely reflects a combination of both the higher conformational stability of the HBS α3β construct and the exact Ras conformation it can access. […] Because, the SOS analogs can bind nucleotide-free and bound Ras, we hypothesize that the compounds are accessing an intermediate switch conformation.

Structure (SMILES) | effect on cell growth relative to vehicle control [1] | GTP-loading of wild type HRas (wild type HRas) | GTP-loading of wild type NRas (wild type NRas) | fold weaker affinity than constrained counterpart α3β-HBSSOS (HRas^(1-166)) [fold]
CC[C@H](C)[C@@H](CC(=O)N[C@@H](Cc1ccc(O)cc1)C(=O)N[C@@H](CCCNC(=N)N)C(=O)N[C@@H](CC(C)C)C(=O)N[C@@H](CCC(=O)O)CC(=O)N[C@@H](CC(C)C)C(=O)N[C@@H](CC(C)C)C(=O)N[C@@H](CCCCN)C(=O)N[C@@H](C)CC(=O)N[C@@H](CCC(=O)O)C(=O)N[C@@H](CCC(=O)O)C(=O)N[C@@H](C)C(=O)N[C@@H](CC(N)=O)C(N)=O)NC(=O)CNC(=O)[C@H](CCC(=O)O)NC(=O)[C@H](Cc1ccccc1)NC(C)=O [α3β-UNCSOS, Ac-FEGiYRLeLLKaEEAN-NH2] (Ac-FEG[β3hI]YRL[β3hE]LLK[β3hA]EEAN-NH2) | no effect on cell growth | not | not | ~136
CC[C@H](C)[C@H](NC(=O)CN1C/C=C\CCC(=O)N[C@@H](Cc2ccccc2)C(=O)N[C@@H](CCC(=O)O)C1=O)C(=O)N[C@@H](Cc1ccc(O)cc1)C(=O)N[C@@H](CCCNC(=N)N)C(=O)N[C@@H](CC(C)C)C(=O)N[C@@H](CCC(=O)O)C(=O)N[C@@H](CC(C)C)C(=O)N[C@@H](CC(C)C)C(=O)N[C@@H](CCCCN)C(=O)N[C@@H](C)C(=O)N[C@@H](CCC(=O)O)C(=O)N[C@@H](CCC(=O)O)C(=O)N[C@@H](C)C(=O)N[C@@H](CC(N)=O)C(N)=O [α-HBSSOS, reference compound] | no effect on cell growth | – | – | –
